Reference: US20070249607A1, “NK-1 AND SEROTONIN TRANSPORTER INHIBITORS” (Bristol-Myers Squibb Company, priority 2006, published 2007)

How the values were obtained:
[1] = biological target: T1, neurokinin-1 (NK-1) receptor (Homo sapiens, UniProt P25103); assay: NK-1 Binding assay ([125I] Substance P competition, U373 cell membranes); conditions: Table 2; U373 membranes, [125I] Substance P displacement; read-out: NK-1 IC50
T1 construct: a human glioblastoma-astrocytoma cell line that endogenously expresses the neurokinin-1 (NK-1) receptor; endogenous in cells; host or cells: U373 human glioblastoma-astrocytoma cells (membranes)
T1 sequence (P25103 whole entry): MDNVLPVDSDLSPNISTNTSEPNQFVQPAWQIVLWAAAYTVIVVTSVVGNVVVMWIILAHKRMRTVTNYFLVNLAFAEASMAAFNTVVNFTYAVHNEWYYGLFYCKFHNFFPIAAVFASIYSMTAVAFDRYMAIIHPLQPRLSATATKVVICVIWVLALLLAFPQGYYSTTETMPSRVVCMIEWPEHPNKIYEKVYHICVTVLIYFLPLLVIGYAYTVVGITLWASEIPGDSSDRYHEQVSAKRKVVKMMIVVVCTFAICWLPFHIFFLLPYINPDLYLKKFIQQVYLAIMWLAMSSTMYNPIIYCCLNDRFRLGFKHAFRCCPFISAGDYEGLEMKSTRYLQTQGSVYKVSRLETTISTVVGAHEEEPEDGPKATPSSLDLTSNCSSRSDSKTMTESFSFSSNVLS
Method in brief: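 Membranes were prepared from U373 human glioblastoma-astrocytoma cells, which express NK-1 endogenously, in 50 mM Tris-HCl pH 7.4 with 3 mM MnCl2, BSA and protease inhibitors. IC50 taken as the midpoint of the specific-binding displacement curve.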

[2] = biological target: T2, human serotonin transporters (Homo sapiens, UniProt P31645); assay: Serotonin transporter binding assay ([3H]-citalopram competition, HEK-hSERT cell membranes); conditions: Table 2; HEK-hSERT membranes, [3H]-citalopram displacement; read-out: SERT IC50
T2 construct: expressed in transfected cells
T2 sequence (P31645 whole entry): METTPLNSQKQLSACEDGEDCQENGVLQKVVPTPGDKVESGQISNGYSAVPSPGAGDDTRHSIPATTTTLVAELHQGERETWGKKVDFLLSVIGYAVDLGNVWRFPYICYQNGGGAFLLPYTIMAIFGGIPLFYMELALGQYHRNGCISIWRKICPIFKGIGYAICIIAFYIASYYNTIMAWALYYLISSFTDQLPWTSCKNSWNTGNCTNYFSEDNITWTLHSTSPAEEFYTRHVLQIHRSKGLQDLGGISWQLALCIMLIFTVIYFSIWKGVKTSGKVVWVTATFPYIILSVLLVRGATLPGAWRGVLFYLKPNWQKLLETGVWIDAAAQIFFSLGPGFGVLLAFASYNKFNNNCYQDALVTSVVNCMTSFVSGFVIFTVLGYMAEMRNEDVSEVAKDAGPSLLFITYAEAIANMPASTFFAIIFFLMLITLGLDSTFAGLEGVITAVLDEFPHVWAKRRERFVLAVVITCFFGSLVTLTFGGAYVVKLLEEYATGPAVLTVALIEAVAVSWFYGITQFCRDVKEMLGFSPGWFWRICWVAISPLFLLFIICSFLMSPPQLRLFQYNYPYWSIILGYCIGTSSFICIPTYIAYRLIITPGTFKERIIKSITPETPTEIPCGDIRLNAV
Method in brief: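 Competition binding against 1 nM [3H]-citalopram (1 hr, 25 °C, Tris pH 7.4 with NaCl/KCl) on stably transfected HEK-hSERT cell membranes, bound ligand collected on filters. Fluoxetine (10 μM) defined nonspecific binding; curve midpoint gives IC50, convertible to Ki by Cheng–Prusoff.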

Compound	IC50 [1]	IC50 [2]
COc1ccc(-c2cc(COCC3(c4ccccc4)CCNCC3)cc(C(F)(F)F)c2)c(OC)n1	0.01 to 100 nM	0.01 to 100 nM
FC(F)(F)c1cc(COCC2(c3ccccc3)CCNCC2)cc(-c2ccc(C3CCNCC3)nc2)c1	> 300 nM	0.01 to 100 nM
CCOC(=O)c1ccccc1-c1cc(COCC2(c3ccccc3)CCNCC2)cc(C(F)(F)F)c1	> 300 nM	100 to 300 nM
CC(C)OC(=O)c1ccc(-c2cc(COCC3(c4ccccc4)CCNCC3)cc(C(F)(F)F)c2)cc1	0.01 to 100 nM	0.01 to 100 nM
COc1cccc(-c2cc(COCC3(c4ccccc4)CCNCC3)cc(C(F)(F)F)c2)c1OC	100 to 300 nM	100 to 300 nM
CCOc1ccc2cc(-c3cc(COCC4(c5ccccc5)CCNCC4)cc(C(F)(F)F)c3)ccc2c1	100 to 300 nM	0.01 to 100 nM
CC(=O)c1ccccc1-c1cc(COCC2(c3ccccc3)CCNCC2)cc(C(F)(F)F)c1	> 300 nM	100 to 300 nM
FC(F)(F)c1cc(COCC2(c3ccccc3)CCNCC2)cc(-c2ccc(C3CCCCC3)cc2)c1	> 300 nM	100 to 300 nM
CCc1ccccc1-c1cc(COCC2(c3ccccc3)CCNCC2)cc(C(F)(F)F)c1	> 300 nM	0.01 to 100 nM
O=[N+]([O-])c1ccc(-c2cc(COCC3(c4ccccc4)CCNCC3)cc(C(F)(F)F)c2)cc1	0.01 to 100 nM	0.01 to 100 nM

Next, values leading:

IC50 [1]	IC50 [2]	Compound
> 300 nM	0.01 to 100 nM	COc1ccc(C)cc1-c1cc(COCC2(c3ccccc3)CCNCC2)cc(C(F)(F)F)c1
> 300 nM	0.01 to 100 nM	COC(=O)c1cc(-c2cc(COCC3(c4ccccc4)CCNCC3)cc(C(F)(F)F)c2)cc([N+](=O)[O-])c1
> 300 nM	0.01 to 100 nM	COc1ccc2cc(-c3cc(COCC4(c5ccccc5)CCNCC4)cc(C(F)(F)F)c3)ccc2c1
100 to 300 nM	100 to 300 nM	CC(C)Oc1ccc(-c2cc(COCC3(c4ccccc4)CCNCC3)cc(C(F)(F)F)c2)cc1
0.01 to 100 nM	0.01 to 100 nM	COC(=O)c1ccc(-c2cc(COCC3(c4ccccc4)CCNCC3)cc(C(F)(F)F)c2)cc1
> 300 nM	100 to 300 nM	Cc1ccc(-c2cc(COCC3(c4ccccc4)CCNCC3)cc(C(F)(F)F)c2)c2ccccc12
100 to 300 nM	0.01 to 100 nM	Cc1cccc(-c2cc(COCC3(c4ccccc4)CCNCC3)cc(C(F)(F)F)c2)c1C
0.01 to 100 nM	0.01 to 100 nM	Cc1cc(-c2cc(COCC3(c4ccccc4)CCNCC3)cc(C(F)(F)F)c2)ccc1F
> 300 nM	0.01 to 100 nM	Cc1cc(-c2cc(COCC3(c4ccccc4)CCNCC3)cc(C(F)(F)F)c2)cc(C)c1O
0.01 to 100 nM	0.01 to 100 nM	COc1ccc(-c2cc(COCC3(c4ccccc4)CCNCC3)cc(C(F)(F)F)c2)cc1C
> 300 nM	100 to 300 nM	CCCOc1cccc(-c2cc(COCC3(c4ccccc4)CCNCC3)cc(C(F)(F)F)c2)c1
